Assays:
[1] = molecular target: T1, human DGAT1 (Homo sapiens, UniProt O75907); experiment: DGAT1 FlashPlate assay: inhibition of DGAT1 activity in membrane preparations; format: biochemical; details: IC50 values expressed in M
T1 construct: FLAG (N); made in house; host or cells: SF9 insect cells (pFastBac baculovirus); total cell membranes used
T1 sequence (O75907 1-488): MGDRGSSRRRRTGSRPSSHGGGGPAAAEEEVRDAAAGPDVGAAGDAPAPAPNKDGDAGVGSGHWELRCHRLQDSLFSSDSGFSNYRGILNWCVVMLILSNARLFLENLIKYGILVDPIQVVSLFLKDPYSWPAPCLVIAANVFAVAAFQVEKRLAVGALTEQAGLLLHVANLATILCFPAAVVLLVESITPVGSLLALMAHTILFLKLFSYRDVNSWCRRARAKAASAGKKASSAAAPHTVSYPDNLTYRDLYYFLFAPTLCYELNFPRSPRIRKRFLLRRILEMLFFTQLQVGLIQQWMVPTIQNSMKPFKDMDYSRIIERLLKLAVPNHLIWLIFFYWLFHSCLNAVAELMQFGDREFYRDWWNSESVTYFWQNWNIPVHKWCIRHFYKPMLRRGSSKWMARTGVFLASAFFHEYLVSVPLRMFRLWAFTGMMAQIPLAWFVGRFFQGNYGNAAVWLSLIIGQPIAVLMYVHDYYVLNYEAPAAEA
From the text: The inhibiting activity of the present compounds on DGAT1 activity was screened in a single well procedure assay using DGAT1 comprising membrane preparations and DGAT1 substrate comprising micelles and determining formed radio-active triacylglycerol coming in close proximity of a flashplate surface by radio luminescence.
Said assay is described in full detail in WO2006/067071, the content of which is incorporated herein by reference.
By DGAT1 activity is meant the transfer of coenzyme A activated fatty acids to the 3-position of 1,2-diacylglycerols, thus forming a triglyceride molecule, by enzyme DGAT1.
human DGAT1 (NM012079.2) was cloned into the pFastBac vector, containing translation start, a FLAG-tag at the N-terminus as described in literature and a viral Kozak sequence (AAX) preceding the ATG to improve expression in insect cells. Expression was done as described in literature (Cases, S., Smith, S. J., Zheng, Y., Myers H. M., Lear, S. R., Sande, E., Novak, S., Collins, C., Welch, C. B., Lusis, A. J., Erickson, S. K. and Farese, R. V. (1998) Proc. Natl. Acad. Sci. USA 95, 13018-13023.) using SF9 cells.
72 h transfected SF9 cells were collected by centrifugation (13000 rpm-15 min-4° C.) and lysed in 2×500 ml lysisbuffer (0.1M Sucrose, 50 mM KCl, 40 mM KH2PO4, 30 mM EDTA pH 7.2. Cells were homogenized by cell disruptor. After centrifugation 1380 rpm-15 min-4° C. (SN discarded), pellet was resuspended in 500 ml lysisbuffer and total cell membranes collected by ultracentrifugation at 34000 rpm (100 000 g) for 60 min (4° C.). The collected membranes were resuspended in lysis buffer, divided in aliquots and stored with 10% glycerol at −80° C. until use.
Add 1 ml dioleoyl-sn-glycerol (10 mg/ml) to 10 ml of L-α-phosphatidylcholine (1 mg/ml) and 10 ml of L-α-phosphatidyl-L-serine (1 mg/ml) in a thick glass recipient. Evaporate under nitrogen and put on ice for 15 minutes. Reconstitute in 10 ml Tris/HCl (10 mM, pH 7.4) by sonication on ice. The sonification process consists of sonification cycles of 10 seconds in the sonification bath followed by 10 seconds cool down on ice and repeating this sonification cycle till a homogeneous solution is obtained (takes about 15 minutes). The thus obtained micelles are stored at −20° C. till later use and contain DAG at a final concentration of 1.61 mM.
• a) Assaybuffer • 50 mM Tris-HCl (pH 7.4), 150 mM MgCl2, 1 mM EDTA, 0.2% BSA. • b) N-ethylmaleimide, 5M • Dissolve 5 g into a final volume of 8 ml DMSO 100% and store at −20° C. in aliquots till later use. • c) Substrate mix (for 1 384 well plate=3840 μl) • 612 μl micelles stock (51 μM final) • 16.6 μl oleoylCoA 9.7 mM • 23 μl [^3H]-oleoylCoA (49 Ci/mmol, 500 μCi/ml) 3188.4 μl Tris pH 7.4, 10 mM • d) Enzyme mix (for 1 384 well plate=3520 μl) (5 μg/ml) • Add 11.73 μl of DGAT membrane stock (1500 μg/ml stock) to 3508 μl assay buffer. • e) Stop mix (for 1 384 well plate=7.68 ml) (250 mM) • Add 384 μl of N-ethylmaleimide (5M) to 3.456 ml DMSO 100%, and further dilute 3.84 ml of said solution with 3.84 ml DMSO 10%. Method
DGAT activity in membrane preparations was assayed in 50 mM Tris-HCl (pH 7.4), 150 mM MgCl2, 1 mM EDTA and 0.2% BSA, containing 50 μM DAG, […] PC/PS and 8.4 μM [^3H]-oleoylCoA (at a specific activity of 30 nCi/well) in a final volume of 50 μl in 384-well format using the red shifted Basic Image FlashPlate™ (Perkin Elmer Cat. No. SMP400).
In detail, 10 μl enzyme mix and 10 μl substrate mix were added to 30 μl of assay buffer, optionally in the presence of 1 μl DMSO (blank and controls) or 1 μl of the compound to be tested. This reaction mixture was incubated for 120 minutes at 37° C. and the enzymatic reaction stopped by adding 20 μl of the stop mix. The plates were sealed and the vesicles allowed to settle overnight at room temperature. Plates were centrifuged for 5 minutes at 1500 rpm and measured in Leadseeker. […]

Structure (SMILES): N#C/N=C(/Nc1c(Cl)cccc1Cl)N1CCN(c2ccc(NC(=O)CCCc3ccccc3)cc2)CC1 [Compound 1]
- IC50 [1]: 9.12 nM

Structure (SMILES): N#C/N=C(\Oc1ccccc1)N1CCN(c2ccc(NC(=O)CCCc3ccccc3)cc2)CC1 [Compound 2]
- IC50 [1]: 1820 nM

Structure (SMILES): N#C/N=C(/Nc1ccccc1Cl)N1CCN(c2ccc(NC(=O)CCCc3ccccc3)cc2)CC1 [Compound 3]
- IC50 [1]: 33.9 nM

Structure (SMILES): Cc1ccccc1N/C(=N/C#N)N1CCN(c2ccc(NC(=O)CCCc3ccccc3)cc2)CC1 [Compound 4]
- IC50 [1]: 36.3 nM

Structure (SMILES): N#C/N=C(/Nc1ccccc1)N1CCN(c2ccc(NC(=O)CCCc3ccccc3)cc2)CC1 [Compound 5]
- IC50 [1]: 1350 nM

Structure (SMILES): Cc1ccccc1-c1cccc(C(=O)Nc2ccc(N3CCN(/C(=N\C#N)Nc4c(Cl)cc(CN5CCCC5)cc4Cl)CC3)cc2)c1 [Compound 6]
- IC50 [1]: 2.4 nM
- melting point: 217.1 °C

Structure (SMILES): CN1CCN(C(=O)c2cc(Cl)c(N/C(=N/C#N)N3CCN(c4ccc(NC(=O)c5cccc(N6CCCC6)c5)cc4)CC3)c(Cl)c2)CC1 [Compound 7]
- IC50 [1]: 5.25 nM

Structure (SMILES): COc1ccc(CC(=O)Nc2ccc(N3CCN(/C(=N\C#N)Nc4c(C)cccc4Cl)CC3)cc2)cc1 [Compound 8]
- pIC50 (mean) [1]: 8.23
- melting point: 206.9 °C

Structure (SMILES): COC(=O)c1ccc(N/C(=N/C#N)N2CCN(c3ccc(NC(=O)c4cccc(N5CCCC5)c4)cc3)CC2)c(Cl)c1 [Compound 9]
- IC50 [1]: 6.31 nM
- melting point: 220.3 °C

Structure (SMILES): COCCN1CCN(C(=O)c2cc(Cl)c(N/C(=N/C#N)N3CCN(c4ccc(NC(=O)Cc5ccc(OC)cc5)cc4)CC3)c(Cl)c2)CC1 [Compound 10]
- pIC50 (mean) [1]: 8.17
- melting point: 205.3 °C

Structure (SMILES): COc1ccc(CC(=O)Nc2ccc(N3CCN(/C(=N\C#N)Nc4c(Cl)cc(CN5CCCC5)cc4Cl)CC3)cc2)cc1 [Compound 11]
- pIC50 (mean) [1]: 8.16
- melting point: 222.4 °C

Structure (SMILES): Cc1cc(C)n(-c2cccc(C(=O)Nc3ccc(N4CCN(/C(=N\C#N)Nc5c(Cl)cc(CN6CCCC6)cc5Cl)CC4)cc3)c2)n1 [Compound 12]
- pIC50 (mean) [1]: 7.84

Structure (SMILES): N#C/N=C(/Nc1ccc(C(=O)O)cc1Cl)N1CCN(c2ccc(NC(=O)CCCc3ccccc3)cc2)CC1 [Compound 13]
- pIC50 (mean) [1]: 7.58
- melting point: 208.7 °C

Structure (SMILES): CCCCCCC(=O)Nc1ccc(N2CCN(/C(=N\C#N)Nc3ccc(C(=O)OC)cc3Cl)CC2)cc1 [Compound 14]
- pIC50 (mean) [1]: 7.24
- melting point: 191.8 °C

Structure (SMILES): COCCN1CCN(C(=O)c2cc(Cl)c(N/C(=N/C#N)N3CCN(c4ccc(NC(=O)CNc5ccccc5)cc4)CC3)c(Cl)c2)CC1 [Compound 15]
- pIC50 (mean) [1]: 7.20
- melting point: 211.9 °C

Structure (SMILES): CC(=O)OCC(=O)Nc1ccc(N2CCN(/C(=N\C#N)Nc3c(F)cccc3Cl)CC2)cc1 [Compound 16]
- pIC50 (mean) [1]: 6.79
- melting point: 209 °C

Structure (SMILES): Cc1cccc(Cl)c1N/C(=N/C#N)N1CCN(c2ccc(NC(=O)c3ccc(N4CCN(C)CC4)cc3)cc2)CC1 [Compound 17]
- pIC50 (mean) [1]: 6.64
- melting point: 285.1 °C

Structure (SMILES): CN1CCN(c2ccc(C(=O)Nc3ccc(N4CCN(/C(=N\C#N)Nc5ccccc5Cl)CC4)cc3)cc2)CC1 [Compound 18]
- pIC50 (mean) [1]: 6.10
- melting point: 244.2 °C

Structure (SMILES): COCCN1CCN(C(=O)c2cc(Cl)c(N/C(=N/C#N)N3CCN(c4ccc(NC(=O)c5ccccc5N5CCN(C)CC5)cc4)CC3)c(Cl)c2)CC1 [Compound 19]
- pIC50 (mean) [1]: 5.54
- melting point: 254.2 °C
